Format in all cases: in vivo
The subject of one test is Aphis gossypii. In words: Test Example 1: foliar spray on cucumber seedling inoculated with Aphis gossypii. The settings on record: 144 h, 500 ppm active ingredient, 20 ml sprayed on cucumber seedling, 6 days after spraying. On the procedure:
On the other hand, on a cucumber seedling (the first true leaf stage) planted in a plastic cup was inoculated with about 30 Aphis gossypii (whole stage), and leaving it for a day. Twenty (20) ml of each test solution was sprayed on the seedling. Six (6) days after spraying, the number of the surviving Aphis gossypii parasitized on the leaves of the cucumber was examined, and a control value was calculated according to the following equation: Controlling value (%)={1−(Cb×Tai)/(Cai×Tb)}×100 wherein the symbols in the above equation represent as follows: Cb: the number of insects in a non-treated section before treatment Cai: the number of insects in a non-treated section on observation Tb: the number of insects in a treated section before treatment Tai: the number of insects in a […] the non-treated section represents a section where the test diluted solution prepared by diluting the formulation without the present compound as in Formulation Example 5 with the same amount of water as in the treated-section was used.

Another test relates to Plutella xylostella. The test can be described thus: Test Example 6: spray on cabbage, Plutella xylostella larvae released. Conditions: 120 h, 20 mL/cup sprayed on cabbage, second instar larvae, 25° C., 5 days, read-out: death rate. On the procedure:
Each test solution was prepared by diluting a formulation containing any of the present compounds 1-4, 1-5, 1-6, 1-8, 1-9, 1-10, 1-16, 1-18, 1-19, 1-20, 1-29, 1-46, 1-48, 1-49, 1-50, 1-63 and 1-76 as obtained in Formulation Example 5, with water so as to give 500 ppm of the concentration of the active ingredient.
On the other hand, Cabbage (the third leaf stage) planted in a polyethylene cup was sprayed with 20 mL/cup of each test solution. After the test solution was dried, the aerial part was cut off, and then placed in a 50 mL volume cup. Five (5) second instar larvae of Plutella xylostella were released into the cup, and the cup was sealed with a lid. After the cup was kept at 25° C. for 5 days, the number of living insects was counted. A death rate was calculated according to the following equation: Death rate (%)=(Number of dead insects/Number of tested insects)×100

A further test has as its system Musca domestica. In words: Test Example 8: treated filter paper with sucrose bait, Musca domestica. Conditions: 500 ppm, 0.7 ml on filter paper, female imagoes, after 24 hours. As to the method: Each test solution was prepared by diluting a formulation containing any of the present compounds 1-4, 1-6, 1-8, 1-9, 1-10, 1-63 and 1-95 as obtained in Formulation Example 5, with water so as to give 500 ppm of the concentration of the active ingredient.
A filter paper having a diameter of 5.5 cm was spread on the bottom of a polyethylene cup having a diameter of 5.5 cm and each test solution (0.7 ml) was added dropwise onto the filter paper. As a bait sucrose (30 mg) was uniformly placed on the filter paper. Into the polyethylene cup, 10 female imagoes of Musca domestica were released and the cup was sealed with a lid. After 24 hours, the number of surviving Musca domestica was examined and the death rate of the pest was calculated according to the following equation: Death rate (%)=(Number of dead insects/Number of tested insects)×100

Test [1] relates to Nilaparvata lugens. In words: Test Example 3: spray on rice seedling, Nilaparvata lugens larvae released. Conditions: 144 h, 10 ml sprayed on rice seedling, third-fourth instar larvae, after 6 days. As to the method:
On the other hand, a rice seedling (the second leaf stage) planted in a polyethylene cup was sprayed with 10 ml of each test solution. After air-drying, 20 third-fourth instar larvae of Nilaparvata lugens were released, and kept in the greenhouse of 25° C. After 6 days, the number of insect of living Nilaparvata lugens parasitized on the rice was examined, and a control value was calculated according to the following equation: Controlling value (%)={1−(Cb×Tai)/(Cai×Tb)}×100 wherein the symbols in the above equation represent as follows: Cb: the number of insects in a non-treated section before treatment Cai: the number of insects in a non-treated section on observation Tb: the number of insects in a treated section before treatment Tai: the number of insects in a […] the non-treated section represents a section where the test diluted solution prepared by diluting the formulation without the present compound as in Formulation Example 5 with the same amount of water as in the treated-section was used.

The test system of test [2] is Nilaparvata lugens. The test can be described thus: Test Example 4: soil drench of rice seedling, Nilaparvata lugens larvae released. The settings on record: 144 h, 5 ml drench at foot of rice seedling, larvae released after 7 days, counted 6 days later. As to the method:
On the other hand, a rice seedling (2 weeks after sowing, the second leaf stage) planted in a plastic cup was drenched at its foot with 5 ml of each test solution, and kept in a greenhouse of 25° C. for 7 days. Twenty (20) third-fourth instar larvae of Nilaparvata lugens were released, and further kept in the greenhouse for 6 days, then the number of insect of living Nilaparvata lugens parasitized on the rice was examined, and a control value was calculated according to the following equation: Controlling value (%)={1−(Cb×Tai)/(Cai×Tb)}×100 wherein the symbols in the above equation represent as follows: Cb: the number of insects in a non-treated section before treatment Cai: the number of insects in a non-treated section on observation Tb: the number of insects in a treated section before treatment Tai: the number of insects in a […] the non-treated section represents a section where the test diluted solution prepared by diluting the formulation without the present compound as in Formulation Example 5 with the same amount of water as in the treated-section was used.

For the next test, the system named is Sogatella furcifera. In words: Test Example 13: spray on rice seedling, Sogatella furcifera larvae released. The settings on record: 50 ppm, 10 ml sprayed on rice seedling, third instar larvae, after 5 days; method equation is a death rate. As to the method: (§1) Any of the present compounds 1-6, 1-8, 1-9 and 1-10 (10 mg) was dissolved in a mixed solution (0.1 ml) of xylene, DMF and Sorpol® 3005X (manufactured by Toho Chemical Industry Co., Ltd.) in a ratio of 4:4:1 to obtain a formulation. Each formulation was diluted with water so as to give 50 ppm of the concentration of the active ingredient.
On the other hand, a rice seedling (2.5 leaf stage) planted in a polyethylene cup was sprayed with 10 ml of each test solution. After air-drying the seedling, 10 third instar larvae of Sogatella furcifera were released, and kept in the greenhouse of 25° C. After 5 days, the number of living insects was counted. A death rate was calculated according to the following equation: Death rate (%)={10−(Number of living insects after 5 days)/10}×100 As a result, in the treated-section using each test solution containing each of the present compounds 1-6, 1-8, 1-9 and 1-10, the control value was 100%.

The subject of another test is Laodelphax striatella. In words: Test Example 12: spray on rice seedling, Laodelphax striatella larvae released. The settings on record: 50 ppm, 10 ml sprayed on rice seedling, third instar larvae, after 5 days; method equation is a death rate. As to the method: as §1
On the other hand, a rice seedling (2.5 leaf stage) planted in a polyethylene cup was sprayed with 10 ml of each test solution. After air-drying the seedling, 10 third instar larvae of Laodelphax striatella were released, and kept in the greenhouse of 25° C. After 5 days, the number of living insects was counted. A death rate was calculated according to the following equation: Death rate (%)={10−(Number of living insects after 5 days)/10}×100

The test system of the next test is Blattalla germanica. In words: Test Example 9: treated filter paper with sucrose bait, Blattalla germanica. Conditions: 500 ppm, 0.7 ml on filter paper, male imagoes, after 6 hours. As to the method:
Each test solution was prepared by diluting a formulation containing any of the present compounds 1-9 and 1-19 as obtained in Formulation Example 5, with water so as to give 500 ppm of the concentration of the active ingredient.
A filter paper having a diameter of 5.5 cm was spread on the bottom of a polyethylene cup having a diameter of 5.5 cm and each test solution (0.7 ml) was added dropwise onto the filter paper. Sucrose (30 mg) as a bait was uniformly placed on the filter paper. Into the polyethylene cup, 2 male imagoes of Blattalla germanica were released and the cup was sealed with a lid. After 6 hours, the number of surviving Blattalla germanica was examined and the death rate of the pest was calculated according to the following equation: Death rate (%)=(Number of dead insects/Number of tested insects)×100

For the compound `CCS(=O)(=O)c1cccnc1-c1nc2cc([S+]([O-])C(F)(F)F)cnc2o1` (stereo not drawn) [present compound 1-4, 2-(3-ethylsulfonylpyridin-2-yl)-6-(trifluoromethylsulfinyl)oxazolo[5,4-b]pyridine], the pest or weed control at 500 ppm with Aphis gossypii is at least 90%; in the test on Plutella xylostella, at least 80%; in the test on Nilaparvata lugens [1] it was at least 90%; in the test on Nilaparvata lugens [2], at least 90%. The compound also showed a death rate in the test on Musca domestica of 100%.
Consider `CCS(=O)(=O)c1cccnc1-c1nc2cc(S(=O)(=O)C(F)(F)F)cnc2o1` [present compound 1-5, 2-(3-ethylsulfonylpyridin-2-yl)-6-(trifluoromethylsulfonyl)oxazolo[5,4-b]pyridine], for which the figures for the pest or weed control at 500 ppm in the test with Aphis gossypii and with Plutella xylostella were at least 90% and at least 80%, respectively.
Consider `CCSc1cccnc1-c1nc2cc(SC(F)(F)F)ccc2o1` [present compound 1-6, 2-(3-ethylsulfanylpyridine-2-yl)-5-(trifluoromethylsulfanyl)benzoxazole], for which the pest or weed control at 500 ppm is at least 90% in the test on Aphis gossypii, at least 80% in the test on Plutella xylostella, at least 90% in the test on Nilaparvata lugens [1] and at least 90% in the test on Nilaparvata lugens [2]. Also, the control value with Sogatella furcifera and in the test with Laodelphax striatella was 100% each time. Moreover, the death rate in the test with Musca domestica was 100%.
Regarding `CCS(=O)(=O)c1cccnc1-c1nc2cc(SC(F)(F)F)ccc2o1` [present compound 1-8, 2-(3-ethylsulfonylpyridin-2-yl)-5-(trifluoromethylsulfanyl)benzoxazole], the pest or weed control at 500 ppm is at least 90% in the test on Aphis gossypii, at least 80% in the test with Plutella xylostella, at least 90% in the test with Nilaparvata lugens [1] and at least 90% in the test on Nilaparvata lugens [2]. Further, the control value in the test on Sogatella furcifera and in the test on Laodelphax striatella was 100% throughout. For the same compound, in the test on Musca domestica, the death rate came to 100%.
As for `CCS(=O)(=O)c1cccnc1-c1nc2cc(S(=O)(=O)C(F)(F)F)ccc2o1` [present compound 1-10, 2-(3-ethylsulfonylpyridin-2-yl)-5-(trifluoromethylsulfonyl)benzoxazole], the pest or weed control at 500 ppm with Aphis gossypii was at least 90%; in the test on Plutella xylostella, at least 80%; with Nilaparvata lugens [1] it was at least 90%; in the test with Nilaparvata lugens [2] it was at least 90%. Besides, the control value in the test with Sogatella furcifera and with Laodelphax striatella was 100% throughout. This compound returned a death rate with Musca domestica of 100%.
For `CCSc1cc(C(F)(F)F)cnc1-c1nc2cc(SC(F)(F)F)ccc2o1` [present compound 1-16, 2-(3-ethylsulfanyl-5-trifluoromethylpyridine-2-yl)-5-(trifluoromethylsulfanyl)benzoxazole], in the test on Plutella xylostella, the pest or weed control at 500 ppm is at least 80%.
In the case of `CCS(=O)(=O)c1cc(C(F)(F)F)cnc1-c1nc2cc(SC(F)(F)F)ccc2o1` [present compound 1-18, 2-(3-ethylsulfonyl-5-trifluoromethylpyridine-2-yl)-5-(trifluoromethylsulfanyl)benzoxazole], the results for the pest or weed control at 500 ppm with Aphis gossypii, with Plutella xylostella and with Nilaparvata lugens [1] were at least 90%, at least 80% and at least 90%, respectively.
With `CCS(=O)(=O)c1cc(C(F)(F)F)cnc1-c1nc2cc([S+]([O-])C(F)(F)F)ccc2o1` (stereo not drawn) [present compound 1-19, 2-(3-ethylsulfonyl-5-trifluoromethylpyridine-2-yl)-5-(trifluoromethylsulfinyl)benzoxazole], the pest or weed control at 500 ppm is at least 90% in the test on Aphis gossypii, at least 80% in the test on Plutella xylostella, at least 90% in the test on Nilaparvata lugens [1] and at least 90% with Nilaparvata lugens [2]. In addition, the death rate in the test on Blattalla germanica amounted to 100%.
As to `CCS(=O)(=O)c1cc(C(F)(F)F)cnc1-c1nc2cc(S(=O)(=O)C(F)(F)F)ccc2o1` [present compound 1-20, 2-(3-ethylsulfonyl-5-trifluoromethylpyridine-2-yl)-5-(trifluoromethylsulfonyl)benzoxazole], the pest or weed control at 500 ppm in the test on Aphis gossypii is at least 90%; in the test on Plutella xylostella, at least 80%.
For `CCSc1cccnc1-c1nc2cc([S+]([O-])C(F)(F)F)ccc2o1` (stereo not drawn) [present compound 1-63, 2-(3-ethylsulfanylpyridine-2-yl)-5-(trifluoromethylsulfinyl)benzoxazole], the pest or weed control at 500 ppm is at least 90% in the test on Aphis gossypii, at least 80% in the test on Plutella xylostella and at least 90% in the test with Nilaparvata lugens [2]. Besides, the death rate in the test with Musca domestica stood at 100%.
Compound `CCSc1cc(C(F)(F)F)cnc1-c1nc2cc([S+]([O-])C(F)(F)F)cnc2o1` (stereo not drawn) [present compound 1-65, 2-(3-ethylsulfanyl-5-trifluoromethylpyridine-2-yl)-6-(trifluoromethylsulfinyl)oxazolo[5,4-b]pyridine] yielded a pest or weed control at 500 ppm with Aphis gossypii of at least 90%.
Regarding `CCS(=O)(=O)c1ccc[n+]([O-])c1-c1nc2cc(S(=O)(=O)C(F)(F)F)ccc2o1` [present compound 1-76], the pest or weed control at 500 ppm is at least 90% in the test with Aphis gossypii, at least 80% with Plutella xylostella, at least 90% in the test on Nilaparvata lugens [1] and at least 90% with Nilaparvata lugens [2].

Source of the values: patent publication US9615580B2, “Fused heterocyclic compound and use thereof for pest control” (Sumitomo Chemical Company, Limited, priority 2012, dated 2017).
